Values of other authors, collected in publication PMC4131438 (ACS chemical biology, 2014).

Experiments:
[1] = BIM BH3 aa 146-166 template, staple at R154/E158 i, i+4

binding to full-length BAX (pro-apoptotic BAX; aa 145-164 constructs)	binding to pro-apoptotic BAX (pro-apoptotic BAX; fluorescence polarization binding assays, aa 146-166 constructs)	Substance	α-helical content in solution [1]
negligible binding		BIM BH3 peptide (aa 145-164): unmodified BIM BH3 peptide composed of amino acids 145-164	
	no detectable BAX interaction	BIM BH3 peptide (aa 146-166): unmodified BIM BH3 peptide, amino acids 146-166	20%
